In ChEMBL document CHEMBL4725277, “Synthetic and therapeutic perspectives of nitrogen containing heterocycles as anti-convulsants” (Bioorg Med Chem, 2020):

Tests used:
Mus musculus [1] = species on record: Mus musculus; assay: Anticonvulsant activity in albino mouse assessed as current-induced seizure latency time; assay type: functional
[2] = Protective index, ratio of TD50 for neurotoxicity in mouse to ED50 for anticonvulsant activity in mouse assessed as protection against pentylenetetrazole-induced seizure; assay type: toxicity; conditions: in vivo, read-out: PI
Mus musculus [3] = species on record: Mus musculus; assay: Anticonvulsant activity in albino mouse assessed as pentylenetetrazole-induced seizure; assay type: functional
[4] = Neurotoxicity in mouse by rotarod test; assay type: toxicity; conditions: in vivo
[5] = Protective index, ratio of TD50 for neurotoxicity in mouse to ED50 for anticonvulsant activity in mouse assessed as protection against current-induced seizure; assay type: toxicity; conditions: in vivo, read-out: PI
Mus musculus [6] = species on record: Mus musculus; assay: Anticonvulsant activity in mouse assessed as protection against current-induced seizure by maximal electroshock seizure test; assay type: functional
Mus musculus [7] = species on record: Mus musculus; assay: Anticonvulsant activity in KunMing mouse assessed as protection against pentylenetetrazole-induced seizure by maximal electroshock seizure test; assay type: functional
[8] = Protective index, ratio of TD50 for neurotoxicity in ip injected albino mouse to ED50 for anticonvulsant activity in ip injected albino mouse assessed as protection against 50 mA current-induced seizure; assay type: toxicity, organism-based; conditions: in vivo
[9] = Neurotoxicity in KunMing mouse by rotarod test; assay type: toxicity; conditions: in vivo
[10] = Protective index, ratio of TD50 for neurotoxicity in ip injected albino mouse to ED50 for anticonvulsant activity in albino mouse assessed as pentylenetetrazole-induced seizure; assay type: toxicity, organism-based; conditions: in vivo
Mus musculus [11] = assay: Anticonvulsant activity in ip injected albino mouse assessed as protection against 50 mA current-induced seizure by maximal electroshock seizure test; assay type: functional
[12] = Neurotoxicity in ip injected albino mouse; assay type: toxicity, organism-based; conditions: in vivo
[13] = Lipophilicity, log P of the compound; assay type: physicochemical; conditions: octanol/water
Mus musculus [14] = assay: Anticonvulsant activity in albino mouse assessed as protection against 50 mA current-induced seizure at 25 mg/kg by maximal electroshock seizure test relative to control; assay type: functional
Mus musculus [15] = species on record: Mus musculus; assay: Anticonvulsant activity in albino mouse assessed as pentylenetetrazole-induced seizure measured after 30 mins; assay type: functional; conditions: 0.5 h
Mus musculus [16] = assay: Anticonvulsant activity in ip injected albino mouse assessed as protection against 50 mA current-induced seizure after 0.5 to 4 hrs interval by maximal electroshock seizure test; assay type: functional; conditions: time hrs 0.5-4
[17] = Neurotoxicity in KunMing mouse after 30 mins by rotarod test; assay type: toxicity; conditions: in vivo
Mus musculus [18] = species on record: Mus musculus; assay: Anticonvulsant activity in KunMing mouse assessed as protection against 50 mA current-induced seizure after 30 mins interval by maximal electroshock seizure test; assay type: functional; conditions: 0.5 h
[19] = Protective index, ratio of TD50 for neurotoxicity in KunMing mouse to ED50 for anticonvulsant activity in KunMing mouse assessed as protection against 50 mA current-induced seizure; assay type: toxicity; conditions: in vivo, read-out: PI
Mus musculus [20] = species on record: Mus musculus; assay: Anticonvulsant activity in KunMing mouse assessed as protection against 50 mA current-induced seizure after 0.5 to 4 hrs by maximal electroshock seizure test; assay type: functional; conditions: time hrs 0.5-4
Mus musculus [21] = species on record: Mus musculus; assay: Anticonvulsant activity in KunMing mouse assessed as protection against current-induced seizure by maximal electroshock seizure test; assay type: functional
Mus musculus [22] = assay: Anticonvulsant activity in albino mouse assessed as protection against 50 mA current-induced seizure at 200 mg/kg by maximal electroshock seizure test relative to control; assay type: functional
Mus musculus [23] = species on record: Mus musculus; assay: Anticonvulsant activity in albino mouse assessed as protection against 50 mA current-induced seizure; assay type: functional; conditions: read-out: PD50
Mus musculus [24] = assay: Anticonvulsant activity in albino mouse assessed as protection against 50 mA current-induced seizure at 50 mg/kg by maximal electroshock seizure test relative to control; assay type: functional
Mus musculus [25] = assay: Anticonvulsant activity in albino mouse assessed as protection against 50 mA current-induced seizure at 100 mg/kg by maximal electroshock seizure test relative to control; assay type: functional
Mus musculus [26] = species on record: Mus musculus; assay: Anticonvulsant activity in mouse assessed as protection against 50 mA current-induced seizure after 0.5 hrs by maximal electroshock seizure test; assay type: functional
[27] = Neurotoxicity in ip and po injected mouse; assay type: toxicity, organism-based; conditions: in vivo
[28] = Protective index, ratio of TD50 for neurotoxicity in ip and po injected mouse to ED50 for anticonvulsant activity in mouse assessed as protection against 50 mA current-induced seizure; assay type: toxicity, organism-based; conditions: in vivo, read-out: PI
[29] = Neurotoxicity in albino rat at 100 mg/kg, ip after 30 mins (reference value: 2%); assay type: toxicity, organism-based; conditions: in vivo, 0.5 h
[30] = Protective index, ratio of TD50 for neurotoxicity in mouse to ED50 for anticonvulsant activity in mouse assessed as protection against 50 mA current-induced seizure; assay type: toxicity; conditions: in vivo, read-out: PI

## CCCC(CCC)C(=O)O [VALPROIC ACID]
Mus musculus [1]
  Time: 7.2 min

## CN(C)c1ccc(C2CC(c3ccccc3)=NC(=S)N2C(=S)Nc2ccccc2)cc1 (stereo not given)
[2]
  selectivity ratio: 1.7
Mus musculus [3]
  ED50: 332 mg/kg
[4]
  TD50: 580 mg/kg
[5]
  selectivity ratio: 18
Mus musculus [6]
  ED50: 32.2 mg/kg

## CCC1(C)CC(=O)NC1=O (stereo not given) [ETHOSUXIMIDE]
Mus musculus [7]
  ED50: 106 mg/kg
[8]; read-out: Ratio
  selectivity ratio: < 0.44
[9]
  TD50: 343 mg/kg
Mus musculus [3]
  ED50: 130 mg/kg
[10]; read-out: Ratio
  selectivity ratio: 3.39
Mus musculus [11]
  ED50: > 1000 mg/kg

## Nc1nnc(C(=O)N2CCCC2c2noc3cc(F)ccc23)c(N)n1 (stereo not given)
[12]
  TD50: > 200 mg/kg
[8]; read-out: Ratio
  selectivity ratio: > 28.2
Mus musculus [11]
  ED50: 7.1 mg/kg

## COc1ccc(-c2nc(N/N=C/c3ccc(Br)cc3)[nH]c(=O)c2C#N)cc1
[13]
  logP: 2.45

## Clc1ccc(Nc2nnc(-c3ccncc3)s2)cc1
Mus musculus [14]
  Activity: 100%

## Clc1ccc(Nc2nnc(-c3ccncc3)o2)cc1
Mus musculus [14]
  Activity: 100%

## O=C1NC(=O)C(c2ccccc2)(c2ccccc2)N1 [PHENYTOIN]
Mus musculus [15]
  ED50: > 100 mg/kg
Mus musculus [3]
  ED50: > 300 mg/kg
Mus musculus [16]
  ED50: 8.8 mg/kg

## CCCCCCOc1ccc2c(c1)CCc1nnc(C(N)=O)n1-2
[17]
  TD50 at 0.5 h: 286 mg/kg
Mus musculus [18]
  ED50: 30.1 mg/kg
[19]
  selectivity ratio: 9.5

## NC(=O)N1c2ccccc2C=Cc2ccccc21 [CARBAMAZEPINE]
[12]
  TD50: 65.5 mg/kg
Mus musculus [15]
  ED50: > 100 mg/kg
[17]
  TD50 at 0.5 h: 69.1 mg/kg
Mus musculus [18]
  ED50: 10.1 mg/kg
Mus musculus [20]
  ED50: 9.8 mg/kg
Mus musculus [3]
  ED50: > 100 mg/kg
[4]
  TD50: 11.8 mg/kg
Mus musculus [16]
  ED50: 8.8 mg/kg
Mus musculus [6]
  ED50: 11.8 mg/kg
Mus musculus [21]
  ED50: 11.8 mg/kg

## S=C1N=C(c2ccccc2)CC(c2ccccc2)N1c1ccc(Cl)cc1 (stereo not given)
[12]
  TD50: 420 mg/kg
Mus musculus [15]
  ED50: 312 mg/kg
[8]; read-out: PI
  selectivity ratio: 21.6
[10]; read-out: PI
  selectivity ratio: 1.3
Mus musculus [16]
  ED50: 19.4 mg/kg

## Nc1nc(-c2ccccc2)nnc1C(=O)N1CCCC1c1noc2cc(F)ccc12 (stereo not given)
[12]
  TD50: > 300 mg/kg
[8]; read-out: Ratio
  selectivity ratio: > 48.4
Mus musculus [11]
  ED50: 6.2 mg/kg

## O=C(CNC(=O)c1ccncc1)Nn1c(COc2ccc(Cl)cc2Cl)nc2ccccc2c1=O
Mus musculus [22]
  Activity: 80%
Mus musculus [23]
  ED50: 103 mg/kg
Mus musculus [24]
  Activity: 50%
Mus musculus [25]
  Activity: 70%

## Nc1nc(-c2ccccc2)nnc1C(=O)N1CCCC1c1noc2cc(Cl)ccc12 (stereo not given)
[12]
  TD50: 103 mg/kg
[8]; read-out: Ratio
  selectivity ratio: > 18
Mus musculus [11]
  ED50: 5.7 mg/kg

## O=c1c2ccccc2n2cnnc2n1-c1ccc(Cl)cc1
Mus musculus [26]
  ED50: 27.39
[27]
  TD50: > 700 mg/kg
[28]
  selectivity ratio: > 25.6

## CN(C)CCOc1ccc2c(c1)C(=O)C(=O)N2
[29]
  Activity: 7%

## FC(F)(F)c1cccc(COc2nn3cnnc3c3ccccc23)c1
[30]
  selectivity ratio: 91.7
[4]
  TD50: 853 mg/kg
Mus musculus [26]; Mus musculus, read-out: ED50
  ED50: 9.3 mg/kg

## O=c1c2ccccc2n2cnnc2n1-c1ccc(Br)cc1
Mus musculus [26]
  ED50: 26.89
[27]
  TD50: > 700 mg/kg
[28]
  selectivity ratio: > 26

## COc1ccc(-c2nc(N/N=C/c3cccc(F)c3)[nH]c(=O)c2C#N)cc1
[13]
  logP: 2.13
